One compound from ChEMBL document CHEMBL6121055, “Strategic Mutations in Designer Native Peptides Combat NLRP3 Inflammasome Activation in Neurodegenerative Disorders” (J Med Chem, 2025) can be followed below.

Test [1] addresses Apoptosis-associated speck-like protein containing a CARD (Homo sapiens, UniProt Q9ULZ3). The experiment in a line: Binding affinity to ASC (unknown origin) assessed as shift in ASC protein band at 0.5 to 2 uM by native PAGE analysis. The settings on record: dose 0.5-2 µM.
Test [2] can be described thus: Inhibition of NLRP3 inflammasome activation in LPS/ATP-stimulated mouse N9 cells assessed as inhibition of IL-1beta mRNA expression by qRT-PCR analysis. Format: cell-based. (In qPCR the cycle at which signal appears reflects the starting amount.)
In test [3] the test system is N9. In words: Inhibition of NLRP3 inflammasome activation mediated in LPS/tau-stimulated mouse N9 cells assessed as increase in mitochondrial membrane potential by flow cytometric analysis. Format: cell-based. The conditions noted are these: dose 5-30 µM. Background: A flow cytometer gives signals particle by particle.
Test [4] is described as follows: Inhibition of NLRP3 inflammasome activation in LPS/ATP-stimulated mouse N9 cells assessed as inhibition of caspase-1 mRNA expression by qRT-PCR analysis. Format: cell-based.
Test [5] concerns N9. In words: Inhibition of NLRP3 inflammasome activation in LPS/alpha-synuclein-stimulated mouse N9 cells assessed as inhibition of ASC speck formation preincubated with LPS for 4 hrs followed by compound addition by 30 mins and measured after 24 hrs of alpha-synuclein stimulation by DAPI staining based immunofluorescence analysis. Format: cell-based. The settings on record: dose 10-20 µM, time 24.5 hrs.

The test system of test [6] is N9. The experiment in a line: Inhibition of NLRP3 inflammasome activation in LPS/ATP-stimulated mouse N9 cells assessed as reduction in caspase-1 mRNA expression by measuring remaining activity at 20 uM by qRT-PCR analysis relative to control. Format: cell-based.
The subject of test [7] is N9. The experiment in a line: Inhibition of NLRP3 inflammasome activation mediated in LPS/amyloid-beta-stimulated mouse N9 cells assessed as increase in mitochondrial membrane potential by flow cytometric analysis. The settings on record: dose 5-30 µM. Format: cell-based.
Test [8] concerns N9. The experiment in a line: Inhibition of NLRP3 inflammasome activation in LPS/ATP-stimulated mouse N9 cells assessed as inhibition of GSDMD cleavage by DAPI staining based immunofluorescence analysis. The conditions noted are these: dose 10-20 µM. Format: cell-based.
The test system of test [9] is N9. The experiment in a line: Inhibition of NLRP3 inflammasome activation in LPS/amyloid-beta-stimulated mouse N9 cells assessed as reduction in IL-1beta secretion at 10 to 20 uM preincubated with LPS for 4 hrs followed by compound addition for 30 mins and measured after amyloid-beta stimulation for 16 hrs by ELISA. Format: cell-based. The settings on record: dose 10-20 µM, time 16.5 hrs.

Test [10] relates to N9. In words: Inhibition of NLRP3 inflammasome activation in LPS/ATP-stimulated mouse N9 cells assessed as increase in intracellular chloride level at 5 to 30 uM preincubated with LPS for 4 hrs followed by compound addition for 30 mins and measured after ATP stimulation for 45 mins by MQAE dye based analysis. Format: cell-based. The settings on record: dose 5-30 µM, time 75.0 min.

The test system of test [11] is N9. In words: Inhibition of NLRP3 inflammasome activation mediated pyroptosis in LPS/amyloid-beta-stimulated mouse N9 cells assessed as reduction in cell death at 5 to 30 uM by MTT assay. Format: cell-based. The conditions noted are these: dose 5-30 µM. (In general: Tetrazolium dyes change colour on reduction, which living cells bring about.)
In test [12] the test system is N9. In words: Inhibition of NLRP3 inflammasome activation in LPS/amyloid-beta-stimulated mouse N9 cells assessed as reduction in IL-1beta secretion at 10 to 20 uM preincubated with LPS for 4 hrs followed by compound addition for 30 mins and measured after amyloid-beta stimulation for 24 hrs by ELISA. Format: cell-based. The settings on record: dose 10-20 µM, time 24.5 hrs.

The source made the active and inactive calls. No cut-off for these calls is given here. Residues, ends and D or L forms follow the SMILES beside them.

Sequence of Apoptosis-associated speck-like protein containing a CARD (Q9ULZ3 whole entry): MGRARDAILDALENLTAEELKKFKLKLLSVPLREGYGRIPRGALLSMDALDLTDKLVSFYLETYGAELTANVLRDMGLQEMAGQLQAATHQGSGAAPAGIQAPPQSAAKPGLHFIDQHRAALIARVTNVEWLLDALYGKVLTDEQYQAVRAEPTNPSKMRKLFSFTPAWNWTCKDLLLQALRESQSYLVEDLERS

As for `CC[C@H](C)[C@H](NC(=O)[C@H](C)NC(=O)[C@H](C)NC(=O)[C@H](CC(C)C)NC(=O)[C@@H](NC(=O)[C@H](Cc1c[nH]c2ccccc12)NC(=O)[C@@H](N)C(C)C)[C@@H](C)CC)C(=O)N[C@@H](CC(N)=O)C(=O)N[C@@H](CCCNC(=N)N)C(=O)N[C@@H](CCCNC(=N)N)C(=O)O` (H-VWILAAINRR-OH), the outcome in [1] was Active. The IC50 (as a rule, the concentration that gives 50% inhibition) in test [2] was 2.57 µM; in test [4], 16.2 µM. The inhibition result in test [3], in [5], in test [7], in [8], in test [9] and in [12] was “Dose-dependent-effect” each time. Moreover, the Activity in [6] came out at 15%. Besides, the inhibition result in test [10] and in test [11] was “Active” each time.
